# Assay results published in ChEMBL document CHEMBL3885881, “DrugMatrix”.
# Species: Rattus norvegicus
# Experiment: DrugMatrix - Regimen: Daily Repeat
# Type: toxicity, organism-based, Sprague-Dawley
# Design: regimen Daily Repeat, gender Male, age 6-8 weeks
# Conditions: in vivo, po, […], route oral GAVAGE, dose 5.2 mg/Kg, dose level Low; for ABSOLUTE BASOPHIL / ABSOLUTE EOSINOPHIL / ABSOLUTE LYMPHOCYTE / ABSOLUTE MONOCYTE / ABSOLUTE SEGMENTED NEUTROPHIL / BASOPHIL / EOSINOPHIL / ERYTHROCYTE COUNT / HEMATOCRIT / HEMOGLOBIN / LEUKOCYTE COUNT / LYMPHOCYTE / MEAN CORPUSCULAR HEMOGLOBIN / MEAN CORPUSCULAR HEMOGLOBIN CONCENTRATION / MEAN CORPUSCULAR VOLUME / MONOCYTE / NEUTROPHIL / NUCLEATED RED BLOOD CELLS / PLATELET COUNT: tissue Blood; for ALANINE AMINOTRANSFERASE / ALBUMIN / ALKALINE PHOSPHATASE / ASPARTATE AMINOTRANSFERASE / BLOOD UREA NITROGEN / CARBON DIOXIDE / CHLORIDE / CHOLESTEROL / CREATINE PHOSPHOKINASE / CREATININE / GLUCOSE / LACTATE DEHYDROGENASE / LIPASE / PHOSPHORUS / POTASSIUM / SODIUM / TOTAL BILIRUBIN / TOTAL PROTEIN / URIC ACID: tissue Plasma
smiles,measurement,setting,value
CC(C(=O)O)c1cccc(Oc2ccccc2)c1 (stereo unspecified) [FENOPROFEN],ABSOLUTE BASOPHIL,"72 h, time 3 day",0 CELLS/uL
same,ABSOLUTE EOSINOPHIL,"72 h, time 3 day",60.67 CELLS/uL
same,ABSOLUTE LYMPHOCYTE,"72 h, time 3 day",12618.67 CELLS/uL
same,ABSOLUTE MONOCYTE,"72 h, time 3 day",219.33 CELLS/uL
same,ABSOLUTE SEGMENTED NEUTROPHIL,"72 h, time 3 day",2034.67 CELLS/uL
same,BASOPHIL,"72 h, time 3 day",0%
same,EOSINOPHIL,"72 h, time 3 day",0.33%
same,ERYTHROCYTE COUNT,"72 h, time 3 day",5.49 x10E6/uL
same,HEMATOCRIT,"72 h, time 3 day",35%
same,HEMOGLOBIN,"72 h, time 3 day",14.13 G/DL
same,LEUKOCYTE COUNT,"72 h, time 3 day",14.93 x10E3/uL
same,LYMPHOCYTE,"72 h, time 3 day",84%
same,MEAN CORPUSCULAR HEMOGLOBIN,"72 h, time 3 day",25.83 pg
same,MEAN CORPUSCULAR HEMOGLOBIN CONCENTRATION,"72 h, time 3 day",40.37 G/DL
same,MEAN CORPUSCULAR VOLUME,"72 h, time 3 day",63.93 fL
same,MONOCYTE,"72 h, time 3 day",1.67%
same,NEUTROPHIL,"72 h, time 3 day",14%
same,NUCLEATED RED BLOOD CELLS,"72 h, time 3 day",0 /100WBC
same,PLATELET COUNT,"72 h, time 3 day",1213.67 x10E3/uL
same,ALANINE AMINOTRANSFERASE,"72 h, time 3 day",79.67 u/L
same,ALBUMIN,"72 h, time 3 day",3.83 G/DL
same,ALKALINE PHOSPHATASE,"72 h, time 3 day",345 u/L
same,ASPARTATE AMINOTRANSFERASE,"72 h, time 3 day",100.33 u/L
same,BLOOD UREA NITROGEN,"72 h, time 3 day",10.67 mg/dL
same,CARBON DIOXIDE,"72 h, time 3 day",29 mmol/L
same,CHLORIDE,"72 h, time 3 day",101 MEQ/L
same,CHOLESTEROL,"72 h, time 3 day",66 mg/dL
same,CREATINE PHOSPHOKINASE,"72 h, time 3 day",384 u/L
same,CREATININE,"72 h, time 3 day",0.14 mg/dL
same,GLUCOSE,"72 h, time 3 day",162.33 mg/dL
same,LACTATE DEHYDROGENASE,"72 h, time 3 day",245 u/L
same,LIPASE,"72 h, time 3 day",12.33 u/L
same,PHOSPHORUS,"72 h, time 3 day",11.73 mg/dL
same,POTASSIUM,"72 h, time 3 day",6.15 MEQ/L
same,SODIUM,"72 h, time 3 day",143.37 MEQ/L
same,TOTAL BILIRUBIN,"72 h, time 3 day",0.17 mg/dL
same,TOTAL PROTEIN,"72 h, time 3 day",5.43 G/DL
same,URIC ACID,"72 h, time 3 day",1.5 mg/dL
same,ABSOLUTE BASOPHIL,"120 h, time 5 day",0 CELLS/uL
same,ABSOLUTE EOSINOPHIL,"120 h, time 5 day",43 CELLS/uL
same,ABSOLUTE LYMPHOCYTE,"120 h, time 5 day",9244.67 CELLS/uL
same,ABSOLUTE MONOCYTE,"120 h, time 5 day",125.67 CELLS/uL
same,ABSOLUTE SEGMENTED NEUTROPHIL,"120 h, time 5 day",820 CELLS/uL
same,BASOPHIL,"120 h, time 5 day",0%
same,EOSINOPHIL,"120 h, time 5 day",0.33%
same,ERYTHROCYTE COUNT,"120 h, time 5 day",5.69 x10E6/uL
same,HEMATOCRIT,"120 h, time 5 day",34.97%
same,HEMOGLOBIN,"120 h, time 5 day",13.73 G/DL
same,LEUKOCYTE COUNT,"120 h, time 5 day",10.23 x10E3/uL
same,LYMPHOCYTE,"120 h, time 5 day",90.33%
same,MEAN CORPUSCULAR HEMOGLOBIN,"120 h, time 5 day",24.13 pg
same,MEAN CORPUSCULAR HEMOGLOBIN CONCENTRATION,"120 h, time 5 day",39.3 G/DL
same,MEAN CORPUSCULAR VOLUME,"120 h, time 5 day",61.43 fL
same,MONOCYTE,"120 h, time 5 day",1.33%
same,NEUTROPHIL,"120 h, time 5 day",8%
same,NUCLEATED RED BLOOD CELLS,"120 h, time 5 day",0 /100WBC
same,PLATELET COUNT,"120 h, time 5 day",1094 x10E3/uL
same,ALANINE AMINOTRANSFERASE,"120 h, time 5 day",64 u/L
same,ALBUMIN,"120 h, time 5 day",4.07 G/DL
same,ALKALINE PHOSPHATASE,"120 h, time 5 day",422.67 u/L
same,ASPARTATE AMINOTRANSFERASE,"120 h, time 5 day",91.67 u/L
same,BLOOD UREA NITROGEN,"120 h, time 5 day",12 mg/dL
same,CARBON DIOXIDE,"120 h, time 5 day",28 mmol/L
same,CHLORIDE,"120 h, time 5 day",102.33 MEQ/L
same,CHOLESTEROL,"120 h, time 5 day",57.33 mg/dL
same,CREATINE PHOSPHOKINASE,"120 h, time 5 day",306.67 u/L
same,CREATININE,"120 h, time 5 day",0.15 mg/dL
same,GLUCOSE,"120 h, time 5 day",153 mg/dL
same,LACTATE DEHYDROGENASE,"120 h, time 5 day",198.33 u/L
same,LIPASE,"120 h, time 5 day",11.67 u/L
same,PHOSPHORUS,"120 h, time 5 day",10.13 mg/dL
same,POTASSIUM,"120 h, time 5 day",6.12 MEQ/L
same,SODIUM,"120 h, time 5 day",142.33 MEQ/L
same,TOTAL BILIRUBIN,"120 h, time 5 day",0.13 mg/dL
same,TOTAL PROTEIN,"120 h, time 5 day",5.53 G/DL
same,URIC ACID,"120 h, time 5 day",1.17 mg/dL
